Laboratory results: patent publication US12382888B2, “Compositions and methods for modulating immunity in plants” (Boyce Thompson Institute for Plant Research, Inc., priority 2013, dated 2025)
“Also recorded” adds a separate entry of the source.

Test system: Turnip Crinkle Virus (TCV)
Assay: Resistance of Arabidopsis to Turnip Crinkle Virus (coat protein immunoblot, symptoms)
Type: in vivo
Settings: root pretreatment 1 μM

CC1O[C@@H](O[C@@H](C)CCCCCCCCC(=O)O)C(O)C[C@H]1O (stereo in doubt) [ascr #18, (10R)-(3′R,5′R-dihydroxy-6′S-methyl-(2H)-tetrahydropyran-2-yloxy)-undecanoic Acid]
resistance to virulent TCV: dramatically enhanced resistance; also recorded: enhanced basal resistance
disease symptoms (chlorosis, lesions, suppression of inflorescent development) (6 dpi): greatly reduced
systemic spread of the virus (distal leaves): largely abolished
viral replication (amount of viral coat protein) (inoculated and distal leaves, immune blot): greatly reduced
